Read-outs that look alike come from different tables or passages of the source.
Experiments:
[1] = assay type: physicochemical
Description: The stability of peptide ST4SA, suspended in sterile distilled water, was tested at temperatures ranging from −20° C. to 60° C. over 42 days (FIG. 12). The peptide remained stable at −20° C. for 42 days and for three weeks at 4° C. […] Peptide ST4SA in powder form did, however, remain stable for 6 months at room temperature (25° C.). Peptide ST4SA will be produced in powder form and marketed as such. Once dissolved in sterile distilled water, peptide ST4SA may be kept for three weeks at 4° C. (see FIG. 12).

[2] = test system: pathogens (Streptococcus pneumoniae, Klebsiella pneumoniae, middle ear isolates); experiment: Cell lysis / growth inhibition of pathogens in BHI broth; assay type: cell-based; conditions: peptide added at mid-exponential phase, BHI broth (FIGS. 15 to 23)
Description: A 0.2% (v/v) inoculum of an overnight pathogen was inoculated into BHI broth. Peptide ST4SA was added to each pathogen at mid-exponential phase.

[3] = test system: Lactobacillus sakei DSM 20017; experiment: Binding of peptide ST4SA to polyethylene (PE); assay type: physicochemical
Description: Binding of peptide ST4SA to polyethylene (PE) was tested. PE film was cut into sections of 5×5 cm and soaked for 1 h in a solution of 60% isopropanol and peptide ST4SA (activity level: 102 400 AU/ml). The PE sections were air-dried (20 min at 60° C.) and assayed for antimicrobial activity by using the standard agar diffusion method. The plates, seeded with L. sakei DSM 20017, were incubated for 24 h at 30° C. and examined for zones of growth inhibition.
The strength of binding was determined by soaking the peptide-coated PE film in SDS-buffer, followed by electro-eluting peptide ST4SA from the film with a current of 30 mA for 2 h (room temperature, i.e. ca. 25° C.). Samples were taken at regular time intervals and tested for antimicrobial activity. Protein concentrations were determined by using the Bradford method. Electro-eluted film was tested for antimicrobial activity by using the agar diffusion method as before.

Streptococcus pyogenes = experiment: β-galactosidase leakage after treatment of pathogens with peptide ST4SA; assay type: cell-based; conditions: Streptococcus pyogenes 20
From the text: (§1) Further evidence of cell membrane damage and leakage of cellular constituents was obtained by testing for extracellular DNA and extracellular β-galactosidase activity.

Klebsiella pneumoniae = experiment: as above; assay type: cell-based; conditions: Klebsiella pneumoniae 30
From the text: as §1

Streptococcus pneumoniae = experiment: as above; assay type: cell-based
From the text: as §1

Enterococcus spp. HKLHS = experiment: as above; assay type: cell-based; conditions: Control organism Enterococcus spp. HKLHS
From the text: as §1

Staphylococcus aureus = experiment: as above; assay type: cell-based; conditions: Staphylococcus aureus 36
From the text: as §1

[4] = test system: Middle ear isolates (unknown); experiment: as above; assay type: cell-based
From the text: as §1

[5] = test system: Pseudomonas sp. isolated from infected middle-ear fluid; experiment: Activity on paper disks and comparison with antibiotics (inhibition zones); assay type: cell-based
Description: Activity was tested against a Pseudomonas sp. isolated from infected middle-ear fluid.

L. monocytogenes = L. monocytogenes challenged with ST4SA in in vitro gastro-intestinal (GIT) model; assay type: cell-based, Listeria monocytogenes
Description: The antimicrobial activity of ST4SA against L. monocytogenes in an in vitro gastro-intestinal model was determined. ST4SA was inoculated in the stomach vessel as described hereinbefore. L. monocytogenes (1×10^4) was inoculated in the duodenum vessel of the GIT. Samples were taken from each vessel and plated out on Enterococcus and Listeria specific medium, respectively. As control, only L. monocytogenes was inoculated in the GIT model.

## Peptide ST4SA: broad-spectrum antibacterial peptide (bacteriocin) produced by Enterococcus mundtii strain ST4SA, SEQ. ID. NO. 12 (MSQVVGGKYYGNGVSCNKKGCSVDWGKAIGIIGNNSAANLATGGAAGWKS; ENTEROCOCCUS MUNDTII ST4SA)
[1]
  Stability: Stability decreased after one week
[1]; powder form, room temperature (25° C.)
  Time peptide remained stable: 6 months
[1]; suspended in sterile distilled water, 4° C.
  Time peptide remained stable: three weeks
[1]; suspended in sterile distilled water, −20° C.
  Time peptide remained stable: 42 days
[2]
  Mode of action on pathogens: acted in a bactericidal manner against most pathogens
[3]; PE film, 60% isopropanol, peptide 102 400 AU/ml
  Time to adsorb to PE: ≤ 60 s
[3]; agar diffusion, L. sakei DSM 20017
  Antimicrobial activity of peptide-coated PE film: high antimicrobial activity
[3]; electro-elution, current of 30 mA, SDS-buffer
  Time to release of peptide from the surface of PE: ≥ 1 h
Streptococcus pyogenes
  β-galactosidase recorded at OD420: No leakage
Klebsiella pneumoniae
  β-galactosidase recorded at OD420: No leakage
Streptococcus pneumoniae; Streptococcus pneumoniae 27
  β-galactosidase recorded at OD420: No leakage
Streptococcus pneumoniae; Streptococcus pneumoniae 29
  β-galactosidase recorded at OD420: No leakage
Streptococcus pneumoniae; Streptococcus pneumoniae D
  β-galactosidase recorded at OD420: No leakage
Enterococcus spp. HKLHS
  β-galactosidase recorded at OD420: No leakage
Staphylococcus aureus
  β-galactosidase recorded at OD420: No leakage
[4]; Middle ear isolate BW
  β-galactosidase recorded at OD420: 0.370
[4]; Middle ear isolate DW
  β-galactosidase recorded at OD420: 0.293
[4]; Middle ear isolate F
  β-galactosidase recorded at OD420: 0.318
[4]; Middle ear isolate GW
  β-galactosidase recorded at OD420: 0.373
[4]; Middle ear isolate HW
  β-galactosidase recorded at OD420: 0.235
[4]; Middle ear isolate K
  β-galactosidase recorded at OD420: No leakage
[4]; Middle ear isolate L
  β-galactosidase recorded at OD420: No leakage
[4]; Middle ear isolate M
  β-galactosidase recorded at OD420: No leakage
[5]; Ampicillin 10 μg, Bacitracin 10 units, Chloramphenicol 30 μg, Erythromycin 15 μg, Tetracycline 30 μg, peptide on paper disk
  Diameter of inhibition zones: 25 mm
[5]; Freeze dried
  Activity of peptide ST4SA on paper disks: 409600 AU/ml
[5]; Paper disk (0.6 cm diameter)
  Activity of peptide ST4SA on paper disks: 20263 AU/ml
[5]; Paper disk (2 cm × 2 cm; 700 μl)
  Activity of peptide ST4SA on paper disks: 286720 AU/ml
L. monocytogenes; ileum vessel, compared with the control
  L. monocytogenes lower than control: 1×10^1 cfu/ml
L. monocytogenes; jejunum vessel, reduced from 8×10^4 (control)
  Growth of L. monocytogenes: 2×10^4
